# In patent US11939361B2, “Compositions of peptide inhibitors of Interleukin-23 receptor” (Janssen Pharmaceutica NV, priority 2020, dated 2024):
# Read-outs that look alike come from different tables or passages of the source.
# Tests used:
# [1] = in vivo
# [2] = Rat PK Study 1: intraduodenal/intracolonic dosing with absorption enhancers; assay type: in vivo, Sprague Dawley rats; conditions: for AUC(0-inf) / AUC(0-t) / Cmax / Tmax: male, Sprague Dawley, plasma, 10 mg/kg
# Method: In this Example, a screen of various absorption enhancers was assessed. […] The following absorption enhancers were tested: sodium caprate (NaCl0), sodium salcaprozate (SNAC), sucrose laureate, Peptelligence (proprietary technology from Enteris Pharma-undisclosed composition) and Labrasol. The solutions were dosed by intracolonic (IC) or intraduodenal (ID) injection to rats. […] NaCl0 gave the highest systemic exposure followed by Peptelligence, then Labrasol, then SNAC, and finally sucrose laureate. Accordingly, sodium caprate was determined to be a preferred absorption enhancer. […] Therefore, the systemic exposure is likely to be high enough to afford systemic activity.
# The following absorption enhancers were evaluated: sodium caprate (NaCl0, 100 mg/kg), SNAC (100 mg/kg), sucrose laurate (100 mg/kg), Enteris A (proprietary technology of Enteris Pharma) (60 mg/kg), and Labrasol (100 mg/kg).
# [3] = system: IL-23 and IL-1β-induced IL-17A secretion in whole blood; test: Rat whole blood assay ex vivo after oral dosing, IL-17A ELISA; assay type: in vivo, Sprague-Dawley rats; conditions: for inhibition of IL-23 and IL-1β-induced IL-17A secretion in whole blood: p.o., blood 2 h after dosing; for IC50: orally dosed rats, read-out: dilution-adjusted ex vivo IC50
# From the text: A rat whole blood assay was used to evaluate the systemic pharmacologic activity of the orally administered peptide of SEQ ID NO: 1. After oral dosing Sprague-Dawley rats with the peptide of SEQ ID NO: 1, blood was drawn from the rats and stimulated ex-vivo with rat IL-23 plus IL-1β. An ELISA assay was used to measure the presence of IL-17A. The production of IL-17A is expected to be suppressed if IL-23 is inhibited. This assay confirms that systemic exposure of orally dosed peptide of SEQ ID NO: 1 is associated with systemic activity, as measured by lower IL-17A production.
# Two or six hours after dosing, animals were euthanized and blood collected as described based on the following.
# For determination of peptide concentration, an aliquot of blood from peptide-treated rats was deposited into K2EDTA microtainer tubes and processed to plasma by centrifugation at 16,100×g for 5 minutes. Plasma was deposited into 5% volume of protease inhibitor (1 cocktail tablet dissolved in 2 mL PBS without Ca^++ and Mg^++) and stored at −80° C. for bioanalysis of test article by LCMS. The remainder of each blood sample was separately diluted in pre-warmed RPMI-1640 (with glutamine and HEPES) at a ratio of one part blood to four parts medium. The diluted blood was mixed by pipetting and kept at room temperature while working stocks of rat IL-23 and IL-1β were prepared in RPMI-1640. The blood was mixed again and 240 μL was pipetted per well into 96-well, round-bottom assay plates, followed by IL-23 and IL-1β stimulation as described below.
# A total of 10 μL of medium supplemented with IL-23 and IL-1β or IL-1β alone was added to each well of diluted blood such that the final concentration of IL-23 was 100, 20, or 4 ng/mL and the final concentration of IL-1β was 4 ng/mL. The assay plates were incubated at 37° C. in 5% CO2. After ˜24 hours, the assay plates were centrifuged at 1,300 rpm for 6 minutes at room temperature, and at least 100 μL of cell culture supernatant were collected into 96-well, V-bottom plates. The plates containing supernatants were sealed and placed on ice for immediate measurement of IL-17A or frozen at −80° C.
# To measure IL-17A in cell culture supernatants, the thawed supernatants were centrifuged at 1,300 rpm for 10 minutes at 4° C. A total of 20 μL of cell culture supernatant was mixed with 80 μL of NS buffer (provided with the rat IL-17A ELISA kit). The diluted samples as well as a freshly prepared serial titration of rat IL-17A (for standard curve) were combined with affinity tag labeled capture and reporter conjugated detector antibodies in 96-well plates (provided with the rat IL-17A ELISA kit). Following a 1-hour incubation at room temperature with shaking, each well was washed 3 times with 350 μL/well wash buffer. After the final wash, the plates were inverted and blotted to remove excess liquid. The plates were developed with TMB substrate for 10 minutes, protected from light, with shaking. After stopping the colorimetric reaction, the absorbance in individual wells was read at 450 nm using a SpectraMax 340PC plate reader.
# A standard curve was generated in duplicate for each ELISA plate. The standard curve data were analyzed with a four-parameter curve fit with 1/y^2 weighting using SoftMax Pro software. Supernatant IL-17A levels were interpolated or extrapolated from plate-specific standard curves using non-background subtracted optical density at 450 nm (OD450) values in SoftMax Pro and corrected for the dilution factor used in the ELISA assay in Microsoft Excel.
# [4] = other: intracolonic, IC dose 10 mg/kg, Enteris A 60 mg/kg
# [5] = other: intracolonic, IC dose 10 mg/kg, Labrasol 100 mg/kg
# [6] = other: intracolonic, IC dose 10 mg/kg, NaC10 100 mg/kg
# [7] = other: intracolonic, IC dose 10 mg/kg, SNAC 100 mg/kg
# [8] = other: intracolonic, IC dose 10 mg/kg, Sucrose laurate 100 mg/kg
# [9] = other: intracolonic, IC dose 10 mg/kg, no absorption enhancer
# [10] = other: intraduodenal, ID dose 10 mg/kg, Enteris A 60 mg/kg
# [11] = other: intraduodenal, ID dose 10 mg/kg, Labrasol 100 mg/kg
# [12] = other: intraduodenal, ID dose 10 mg/kg, NaC10 100 mg/kg
# [13] = other: intraduodenal, ID dose 10 mg/kg, SNAC 100 mg/kg
# [14] = other: intraduodenal, ID dose 10 mg/kg, Sucrose laurate 100 mg/kg
# [15] = other: intraduodenal, ID dose 10 mg/kg, no absorption enhancer
compound,measurement,setting,value
"CC(=O)NCCCC[C@@H]1NC(=O)[C@H](Cc2c[nH]c3c(C)cccc23)NC(=O)[C@H]([C@@H](C)O)NC(=O)[C@H](CC(N)=O)NC(=O)[C@@H](NC(C)=O)C(C)(C)SSC(C)(C)[C@@H](C(=O)N[C@@H](Cc2ccc(OCCN)cc2)C(=O)N[C@@H](Cc2ccc3ccccc3c2)C(=O)NC2(C(=O)N[C@@H](CCC(=O)O)C(=O)N[C@@H](CC(N)=O)C(=O)N[C@@H](Cc3cccnc3)C(=O)N(C)CC(N)=O)CCOCC2)NC1=O [SEQ ID NO: 1, Ac-[Pen]*—N-T-[W(7-Me)]-[Lys(Ac)]-[Pen]*-Phe[4-(2-aminoethoxy)]-[2-Nal]-[THP]-E-N-[3-Pal]-Sarc-NH2]",mean accumulation for AUC,[1]; human,13-50%
same,Systemic exposure (Cmax and AUC) versus dose,[1],approximately dose-proportional
same,Fabs,"[2]; IC dose 10 mg/kg, Enteris A 60 mg/kg",2.98%
same,Fabs,"[2]; IC dose 10 mg/kg, Labrasol 100 mg/kg",5.82%
same,Fabs,"[2]; IC dose 10 mg/kg, NaC10 100 mg/kg",6.36%
same,Fabs,"[2]; IC dose 10 mg/kg, SNAC 100 mg/kg",1.64%
same,Fabs,"[2]; IC dose 10 mg/kg, Sucrose laurate 100 mg/kg",0.939%
same,Fabs,"[2]; IC dose 10 mg/kg, no absorption enhancer",0.0531%
same,Fabs,"[2]; ID dose 10 mg/kg, Enteris A 60 mg/kg",5.06%
same,Fabs,"[2]; ID dose 10 mg/kg, Labrasol 100 mg/kg",3.26%
same,Fabs,"[2]; ID dose 10 mg/kg, NaC10 100 mg/kg",6.24%
same,Fabs,"[2]; ID dose 10 mg/kg, SNAC 100 mg/kg",1.13%
same,Fabs,"[2]; ID dose 10 mg/kg, Sucrose laurate 100 mg/kg",0.764%
same,Fabs,"[2]; ID dose 10 mg/kg, no absorption enhancer",0.360%
same,AUC(0-inf),[2]; [4],567 ng·h/mL
same,AUC(0-t),[2]; [4],561 ng·h/mL
same,Cmax,[2]; [4],626 ng/mL
same,Tmax,[2]; [4],15 min
same,AUC(0-inf),[2]; [5],1110 ng·h/mL
same,AUC(0-t),[2]; [5],1100 ng·h/mL
same,Cmax,[2]; [5],976 ng/mL
same,Tmax,[2]; [5],15 min
same,AUC(0-inf),[2]; [6],1210 ng·h/mL
same,AUC(0-t),[2]; [6],1210 ng·h/mL
same,Cmax,[2]; [6],1030 ng/mL
same,Tmax,[2]; [6],20 min
same,AUC(0-inf),[2]; [7],312 ng·h/mL
same,AUC(0-t),[2]; [7],309 ng·h/mL
same,Cmax,[2]; [7],309 ng/mL
same,Tmax,[2]; [7],20 min
same,AUC(0-inf),[2]; [8],179 ng·h/mL
same,AUC(0-t),[2]; [8],176 ng·h/mL
same,Cmax,[2]; [8],191 ng/mL
same,Tmax,[2]; [8],15 min
same,Cmax,[2]; [9],4.99 ng/mL
same,Tmax,[2]; [9],35 min
same,AUC(0-inf),[2]; [10],964 ng·h/mL
same,AUC(0-t),[2]; [10],958 ng·h/mL
same,Cmax,[2]; [10],988 ng/mL
same,Tmax,[2]; [10],15 min
same,AUC(0-inf),[2]; [11],621 ng·h/mL
same,AUC(0-t),[2]; [11],617 ng·h/mL
same,Cmax,[2]; [11],625 ng/mL
same,Tmax,[2]; [11],15 min
same,AUC(0-inf),[2]; [12],1190 ng·h/mL
same,AUC(0-t),[2]; [12],1190 ng·h/mL
same,Cmax,[2]; [12],1220 ng/mL
same,Tmax,[2]; [12],15 min
same,AUC(0-inf),[2]; [13],215 ng·h/mL
same,AUC(0-t),[2]; [13],210 ng·h/mL
same,Cmax,[2]; [13],209 ng/mL
same,Tmax,[2]; [13],15 min
same,AUC(0-inf),[2]; [14],145 ng·h/mL
same,AUC(0-t),[2]; [14],141 ng·h/mL
same,Cmax,[2]; [14],107 ng/mL
same,Tmax,[2]; [14],15 min
same,AUC(0-inf),[2]; [15],68.6 ng·h/mL
same,Cmax,[2]; [15],23.1 ng/mL
same,Tmax,[2]; [15],40 min
same,AUC(0-t),"[2]; other: intraduodenal, ID dose 10 mg/kg, no absorption enhancer, last time point 2, 4, 6, 8, or 24 hours",62 ng·h/mL
same,median IL-17A production relative to vehicle control,"[3]; 10 mg/kg p.o., 2 hours post-dosing, 100, 20, or 4 ng/mL IL-23 and 4 ng/mL IL-1β",significantly reduced
same,median IL-17A levels,"[3]; 10 mg/kg p.o., 6 hours post-dosing, 4 ng/mL IL-23",significant decrease
same,effect on ex vivo IL-17A response,"[3]; 10 mg/kg p.o., 6 hours post-dosing, 100 and 20 ng/mL IL-23 and IL-1β",no significant effect
same,inhibition of IL-23 and IL-1β-induced IL-17A secretion in whole blood,[3]; 0.03-100 mg/kg,dose-dependent inhibition
same,inhibition of IL-23 and IL-1β-induced IL-17A secretion in whole blood,[3]; doses of 1 mg/kg or lower,limited effect
same,inhibition of IL-23 and IL-1β-induced IL-17A secretion in whole blood,[3]; doses of 30 and 100 mg/kg,complete or nearly complete inhibition
same,IC50,[3]; blood challenged with 4 ng/mL IL-23 plus 4 ng/mL IL-1β,0.032 nM
same,IC50,[3]; blood challenged with 20 ng/mL IL-23 plus 4 ng/mL IL-1β,0.27 nM
